# PMC11370402 (bioRxiv, 2024)
# System: human tracheobronchial epithelial cells (hTECs) basal-ESC growth
# Assay: hTEC growth in submerged 2D culture
# Type: cell-based
smiles,measurement,value
"O=c1ncn2nc(Sc3ccc(F)cc3F)ccc2c1-c1c(Cl)cccc1Cl [NuP-401, VX-745]",effect on basal cell growth,not found
